Measurements from patent publication US9422293B2 (priority 2006, dated 2016).
Counter-ions that a name gives are not always drawn.

The compounds below were run against rat TRPV1 (Rattus norvegicus (Rat), UniProt O35433). Conditions: read-out: Rat IC50.
Chain of rat TRPV1 (O35433 whole entry): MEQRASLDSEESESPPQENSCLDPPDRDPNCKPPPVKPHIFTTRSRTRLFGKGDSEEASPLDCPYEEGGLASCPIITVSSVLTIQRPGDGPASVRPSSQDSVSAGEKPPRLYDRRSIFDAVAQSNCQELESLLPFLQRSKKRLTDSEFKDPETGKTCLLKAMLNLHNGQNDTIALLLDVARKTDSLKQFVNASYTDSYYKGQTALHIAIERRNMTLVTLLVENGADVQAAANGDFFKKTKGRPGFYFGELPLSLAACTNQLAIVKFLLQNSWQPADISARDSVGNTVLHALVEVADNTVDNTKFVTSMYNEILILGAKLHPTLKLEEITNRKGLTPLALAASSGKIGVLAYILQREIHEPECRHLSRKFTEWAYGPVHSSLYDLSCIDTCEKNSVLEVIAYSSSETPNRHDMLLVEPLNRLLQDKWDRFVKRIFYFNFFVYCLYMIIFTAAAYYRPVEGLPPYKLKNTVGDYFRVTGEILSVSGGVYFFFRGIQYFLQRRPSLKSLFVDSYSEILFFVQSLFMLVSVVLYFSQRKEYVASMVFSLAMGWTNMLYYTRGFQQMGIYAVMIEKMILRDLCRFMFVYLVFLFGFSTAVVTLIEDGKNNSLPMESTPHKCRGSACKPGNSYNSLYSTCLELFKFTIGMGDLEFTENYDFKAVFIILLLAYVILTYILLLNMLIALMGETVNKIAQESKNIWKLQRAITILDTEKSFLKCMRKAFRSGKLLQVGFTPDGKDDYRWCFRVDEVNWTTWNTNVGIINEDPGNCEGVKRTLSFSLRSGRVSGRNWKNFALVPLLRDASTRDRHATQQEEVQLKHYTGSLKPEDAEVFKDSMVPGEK

Row | Compound | IC50
1 | COC(=O)c1ccc(Nc2nc(N(C)C)nc3c2CCN(c2ncccc2C(F)(F)F)CC3)cc1 [Example 77B, 4-[2-Dimethylamino-7-(3-trifluoromethyl-pyridin-2-yl)-6,7,8,9-tetrahydro-5H-pyrimido[4,5-d]azepin-4-ylamino]-benzoic acid methyl ester trifluoroacetic acid salt] | 580 nM
2 | FC(F)(F)c1ccc(Nc2nc(-c3ccncc3)nc3c2CCN(c2ncccc2C(F)(F)F)CC3)cn1 [Example 170, 2-Pyridin-4-yl-7-[3-(trifluoromethyl)pyridin-2-yl]-N-[6-(trifluoromethyl)pyridin-3-yl]-6,7,8,9-tetrahydro-5H-pyrimido[4,5-d]azepin-4-amine trifluoroacetic acid salt] | 60 nM
3 | CN1CCC(C)(C)c2ccc(Nc3nc(SC4CCCCC4)nc4c3CCN(c3ncccc3C(F)(F)F)CC4)cc21 [Example 371, 2-(Cyclohexylsulfanyl)-7-[3-(trifluoromethyl)pyridin-2-yl]-N-(1,4,4-trimethyl-1,2,3,4-tetrahydroquinolin-7-yl)-6,7,8,9-tetrahydro-5H-pyrimido[4,5-d]azepin-4-amine] | > 6670 nM
4 | CC(C)c1nc2c(c(Nc3ccc(C(F)(F)F)cn3)n1)CCN(c1ncccc1C(F)(F)F)CC2 [Example 20, [2-Isopropyl-7-(3-trifluoromethyl-pyridin-2-yl)-6,7,8,9-tetrahydro-5H-pyrimido[4,5-d]azepin-4-yl]-(5-trifluoromethyl-pyridin-2-yl)-amine] | 32 nM
5 | CCCCOc1nc2c(c(Nc3ccc(C(F)(F)F)nc3)n1)CCN(c1ncccc1C(F)(F)F)CC2 [Example 327, 2-(Butyloxy)-7-[3-(trifluoromethyl)pyridin-2-yl]-N-[6-(trifluoromethyl)pyridin-3-yl]-6,7,8,9-tetrahydro-5H-pyrimido[4,5-d]azepin-4-amine] | 890 nM
6 | O=S(=O)(c1ccc(Nc2nc(SC3CCCCC3)nc3c2CCN(c2ncccc2C(F)(F)F)CC3)cc1)C(F)(F)F [Example 360, 2-(Cyclohexylsulfanyl)-7-[3-(trifluoromethyl)pyridin-2-yl]-N-{4-[(trifluoromethyl)sulfonyl]phenyl}-6,7,8,9-tetrahydro-5H-pyrimido[4,5-d]azepin-4-amine] | 250 nM
7 | CSc1nc2c(c(Nc3ccc(C(C)(C)C)cc3)n1)CCN(c1ncccc1C(F)(F)F)CC2 [Example 202, N-[4-(1,1-Dimethylethyl)phenyl]-2-(methylsulfanyl)-7-[3-(trifluoromethyl)pyridin-2-yl]-6,7,8,9-tetrahydro-5H-pyrimido[4,5-d]azepin-4-amine] | 12400 nM
8 | FC(F)(F)c1ccc(Nc2nc(-c3cccs3)nc3c2CCN(c2ncccc2C(F)(F)F)CC3)cc1 [Example 149, 2-(2-Thienyl)-N-[4-(trifluoromethyl)phenyl]-7-[3-(trifluoromethyl)pyridin-2-yl]-6,7,8,9-tetrahydro-5H-pyrimido[4,5-d]azepin-4-amine] | 150 nM
9 | FC(F)(F)c1ccc(Nc2nc(C3CC3)nc3c2CCN(c2ncccc2C(F)(F)F)CC3)nc1 [Example 19, [2-Cyclopropyl-7-(3-trifluoromethyl-pyridin-2-yl)-6,7,8,9-tetrahydro-5H-pyrimido[4,5-d]azepin-4-yl]-(5-trifluoromethyl-pyridin-2-yl)-amine] | 510 nM
10 | O=S(=O)(c1ccc(Nc2nc(SCc3ccccc3)nc3c2CCN(c2ncccc2C(F)(F)F)CC3)cc1)C(F)(F)F [Example 359, 2-[(Phenylmethyl)sulfanyl]-7-[3-(trifluoromethyl)pyridin-2-yl]-N-{4-[(trifluoromethyl)sulfonyl]phenyl}-6,7,8,9-tetrahydro-5H-pyrimido[4,5-d]azepin-4-amine] | 320 nM
11 | FC(F)(F)c1ccc(Nc2nc(NCC3CC3)nc3c2CCN(c2ncccc2C(F)(F)F)CC3)cc1 [Example 95B, N^2-Cyclopropylmethyl-N^4-(4-trifluoromethyl-phenyl)-7-(3-trifluoromethyl-pyridin-2-yl)-6,7,8,9-tetrahydro-5H-pyrimido[4,5-d]azepine-2,4-diamine trifluoroacetic acid salt] | 82 nM
12 | CC(C)c1nc2c(c(Nc3ccc(C(O)C(F)(F)F)cc3)n1)CCN(c1ncccc1C(F)(F)F)CC2 (centres unmarked) [Example 183, 2,2,2-Trifluoro-1-[4-({2-(1-methylethyl)-7-[3-(trifluoromethyl)pyridin-2-yl]-6,7,8,9-tetrahydro-5H-pyrimido[4,5-d]azepin-4-yl}amino)phenyl]ethanol] | 2370 nM
13 | CC(C)(C)c1ccc(Nc2nc(-c3ccoc3)nc3c2CCN(c2ncccc2C(F)(F)F)CC3)cc1 [Example 147, N-[4-(1,1-Dimethylethyl)phenyl]-2-furan-3-yl-7-[3-(trifluoromethyl)pyridin-2-yl]-6,7,8,9-tetrahydro-5H-pyrimido[4,5-d]azepin-4-amine] | 110 nM
14 | CC(C)(C)c1ccc(Nc2nc(-c3ccco3)nc3c2CCN(c2ncccc2C(F)(F)F)CC3)cc1 [Example 145, N-[4-(1,1-Dimethylethyl)phenyl]-2-furan-2-yl-7-[3-(trifluoromethyl)pyridin-2-yl]-6,7,8,9-tetrahydro-5H-pyrimido[4,5-d]azepin-4-amine] | 240 nM
15 | COC(=O)C(C)(C)c1ccc(Nc2nc(C(C)C)nc3c2CCN(c2ncccc2C(F)(F)F)CC3)cc1 [Example 174, Methyl 2-methyl-2-[4-({2-(1-methylethyl)-7-[3-(trifluoromethyl)pyridin-2-yl]-6,7,8,9-tetrahydro-5H-pyrimido[4,5-d]azepin-4-yl}amino)phenyl]propanoate] | 2010 nM
16 | OC1CCN(c2nc3c(c(Nc4ccc(C(F)(F)F)cc4)n2)CCN(c2ncccc2C(F)(F)F)CC3)CC1 [Example 59B, 1-[4-(4-Trifluoromethyl-phenylamino)-7-(3-trifluoromethyl-pyridin-2-yl)-6,7,8,9-tetrahydro-5H-pyrimido[4,5-d]azepin-2-yl]-piperidin-4-ol trifluoroacetic acid salt] | 380 nM
17 | CCCSc1nc2c(c(Nc3ccc(C(F)(F)F)cc3)n1)CCN(c1ncccc1C(F)(F)F)CC2 [Example 375, 2-(Propylsulfanyl)-N-[4-(trifluoromethyl)phenyl]-7-[3-(trifluoromethyl)pyridin-2-yl]-6,7,8,9-tetrahydro-5H-pyrimido[4,5-d]azepin-4-amine] | > 6670 nM
18 | OC[C@@H]1CCCN1c1nc2c(c(Nc3ccc(C(F)(F)F)cc3)n1)CCN(c1ncccc1C(F)(F)F)CC2 [Example 260, [(2S)-1-(4-{[4-(Trifluoromethyl)phenyl]amino}-7-[3-(trifluoromethyl)pyridin-2-yl]-6,7,8,9-tetrahydro-5H-pyrimido[4,5-d]azepin-2-yl)pyrrolidin-2-yl]methanol hydrochloride salt] | 50 nM
19 | O=S1(=O)CCCCN1c1nc2c(c(Nc3ccc(C(F)(F)F)cc3)n1)CCN(c1ncccc1C(F)(F)F)CC2 [Example 212, 2-(1,1-Dioxido-1,2-thiazinan-2-yl)-N-[4-(trifluoromethyl)phenyl]-7-[3-(trifluoromethyl)pyridin-2-yl]-6,7,8,9-tetrahydro-5H-pyrimido[4,5-d]azepin-4-amine trifluoroacetic acid salt] | 220 nM
20 | CC(C)N(C)c1nc2c(c(Nc3ccc(C(F)(F)F)cc3)n1)CCN(c1ncccc1C(F)(F)F)CC2 [Example 272, N^2-Methyl-N^2-(1-methylethyl)-N^4-[4-(trifluoromethyl)phenyl]-7-[3-(trifluoromethyl)pyridin-2-yl]-6,7,8,9-tetrahydro-5H-pyrimido[4,5-d]azepine-2,4-diamine] | 200 nM
